According to article PMC10167348, “Structural mechanisms of TRPM7 activation and inhibition” (Nature Communications, 2023):
Where two headings read alike, the source gives them in different places.

How the values were obtained:
Test in all cases: Aequorin-based Ca2+ influx assay, inhibition of TRPM7-mediated Ca2+ influx
Assay type in all cases: cell-based
TRPM7-A981V = biological target: T1, TRPM7-A981V (Mus musculus, UniProt Q923J1, A981V)
T1 construct: expressed in transfected cells; host or cells: HEK 293T
T1 sequence (Q923J1 whole entry A981V): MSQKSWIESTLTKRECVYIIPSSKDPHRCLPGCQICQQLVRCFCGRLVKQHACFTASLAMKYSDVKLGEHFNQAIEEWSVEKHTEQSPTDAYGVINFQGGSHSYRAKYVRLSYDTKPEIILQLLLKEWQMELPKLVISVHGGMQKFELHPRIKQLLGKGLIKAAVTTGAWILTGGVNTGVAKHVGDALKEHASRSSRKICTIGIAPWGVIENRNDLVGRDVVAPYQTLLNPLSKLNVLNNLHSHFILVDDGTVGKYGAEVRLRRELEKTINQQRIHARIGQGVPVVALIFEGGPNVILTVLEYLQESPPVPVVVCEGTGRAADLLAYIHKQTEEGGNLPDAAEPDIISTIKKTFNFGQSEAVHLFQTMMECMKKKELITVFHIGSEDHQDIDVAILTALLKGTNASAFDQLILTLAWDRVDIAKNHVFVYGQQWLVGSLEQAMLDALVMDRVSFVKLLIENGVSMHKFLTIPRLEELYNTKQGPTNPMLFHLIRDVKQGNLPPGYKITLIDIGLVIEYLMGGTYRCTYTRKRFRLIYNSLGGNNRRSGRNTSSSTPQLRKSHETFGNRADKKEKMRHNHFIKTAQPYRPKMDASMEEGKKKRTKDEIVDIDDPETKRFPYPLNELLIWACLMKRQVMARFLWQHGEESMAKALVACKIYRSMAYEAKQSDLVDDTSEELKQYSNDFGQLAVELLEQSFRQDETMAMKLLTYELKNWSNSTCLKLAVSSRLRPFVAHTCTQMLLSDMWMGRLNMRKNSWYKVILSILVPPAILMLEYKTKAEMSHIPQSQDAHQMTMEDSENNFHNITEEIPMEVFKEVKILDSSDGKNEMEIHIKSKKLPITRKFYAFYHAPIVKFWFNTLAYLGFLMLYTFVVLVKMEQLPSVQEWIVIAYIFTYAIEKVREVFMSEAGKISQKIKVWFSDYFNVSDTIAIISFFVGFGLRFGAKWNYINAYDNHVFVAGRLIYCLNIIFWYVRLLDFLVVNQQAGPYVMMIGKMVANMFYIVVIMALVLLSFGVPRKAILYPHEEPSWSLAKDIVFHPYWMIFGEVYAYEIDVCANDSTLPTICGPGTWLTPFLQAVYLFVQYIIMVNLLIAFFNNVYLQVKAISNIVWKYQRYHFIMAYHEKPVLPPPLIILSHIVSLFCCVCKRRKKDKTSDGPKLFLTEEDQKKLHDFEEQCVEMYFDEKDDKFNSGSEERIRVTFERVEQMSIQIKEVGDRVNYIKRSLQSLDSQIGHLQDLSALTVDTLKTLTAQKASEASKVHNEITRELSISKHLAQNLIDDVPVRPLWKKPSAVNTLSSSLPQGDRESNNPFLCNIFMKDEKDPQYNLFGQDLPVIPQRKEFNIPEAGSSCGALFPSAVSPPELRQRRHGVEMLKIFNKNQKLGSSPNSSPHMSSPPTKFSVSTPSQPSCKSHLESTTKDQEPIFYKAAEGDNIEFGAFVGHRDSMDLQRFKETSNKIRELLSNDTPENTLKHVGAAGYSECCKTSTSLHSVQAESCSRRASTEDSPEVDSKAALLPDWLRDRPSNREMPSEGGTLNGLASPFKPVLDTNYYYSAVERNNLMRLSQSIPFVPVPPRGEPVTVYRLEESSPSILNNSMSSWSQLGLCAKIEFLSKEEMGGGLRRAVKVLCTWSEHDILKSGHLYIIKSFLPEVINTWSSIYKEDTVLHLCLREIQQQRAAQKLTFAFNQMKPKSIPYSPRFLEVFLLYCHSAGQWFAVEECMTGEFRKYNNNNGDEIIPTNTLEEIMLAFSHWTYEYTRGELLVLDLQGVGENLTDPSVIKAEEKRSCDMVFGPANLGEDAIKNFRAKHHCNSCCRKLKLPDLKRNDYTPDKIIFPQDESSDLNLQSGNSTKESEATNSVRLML
Method: (§1) Measurements of [Ca^2+]i were performed as reported previously with several modifications[2],[52],[54]. HEK 293T cells (mycoplasma test negative, ATCC #CRL3216) were maintained at 37 °C and 5% CO2 in DMEM supplemented with 10% fetal calf serum, 100 µg/ml streptomycin and 100 U/ml penicillin (all from Thermo Fisher Scientific). Cells cultured in six-well plates (~60% confluence) were transfected with 2 µg/dish Trpm7 plasmid DNA and 0.1 µg/dish pG5A plasmid DNA encoding eGFP fused to Aequorea victoria aequorin, using Lipofectamine 2000 (Thermo Fisher Scientific). Twenty-four hours after transfection, the cells were washed with Mg^2+-free HEPES-buffered saline (Mg^2+-free HBS) containing 140 mM NaCl, 6 mM KCl, 0.5 mM CaCl2, 10 mM HEPES (pH 7.4) and 5 mM glucose, and mechanically resuspended in the Mg^2+-free HBS. For reconstitution of aequorin, cell suspensions were incubated with 5 µM coelenterazine (Biaffin GmbH) in the Mg^2+-free HBS for 30 min at room temperature. Cells were washed twice by centrifugation at 600 rpm for 5 min (Heraeus Pico 17 microcentrifuge, Thermo Fisher Scientific), resuspended in the Mg^2+-free HBS and aliquoted into 96-well plates (1 × 10^5 cells per well). Luminescence was detected at room temperature using a FLUOstar OPTIMA microplate reader (BMG LABTECH GmbH). To monitor the NS8593- and VER155008-induced inhibition of TRPM7-mediated Ca^2+ influx, the extracellular concentration of Ca^2+ was increased to 5 mM by injecting the CaCl2-containing Mg^2+-free HBS in the absence or presence of the inhibitors. […] To study activation by naltriben, TRPM7-transfected cells were exposed to Mg^2+-free HBS containing different concentrations of the agonist. The experiments were terminated by lysing cells with 0.1% (v/v) Triton X-100 in the Mg^2+-free HBS to record the total bioluminescence. The bioluminescence rates (counts/s) were analyzed at 1-s intervals and calibrated as [Ca^2+]i values using the following equation:1 p[Ca^2+]i=0.332588(−log(k))+5.5593 where k represents the rate of aequorin consumption, i.e., counts/s divided by the total number of counts.
(§2) To determine the IC50 values for NS8593 and VER155008 (EC50 for naltriben), the data were fitted with the following logistic equation:2 Ec=Emin+Emax+Emin/1+c^h/IC50^h where E(c) is the functional effect at the concentration c of the compound, Emin is the minimal effect, Emax is the maximal effect, IC50 (EC50) is the concentration of the compound that produces the half-maximal effect, and h is the Hill coefficient. Fitting of dose-response curves was performed using GraphPad Prism 8.4.0. Data are presented as the mean ± SEM.

TRPM7-M991A = biological target: T2, TRPM7-M991A (Mus musculus, UniProt Q923J1, M991A)
T2 construct: expressed in transfected cells; host or cells: HEK 293T
T2 sequence (Q923J1 whole entry M991A): as the sequence (Q923J1 whole entry A981V) above, with V981A, M991A counted along it
Method: as §1, §2

TRPM7-W1111A = biological target: T3, TRPM7-W1111A (Mus musculus, UniProt Q923J1, W1111A)
T3 construct: expressed in transfected cells; host or cells: HEK 293T
T3 sequence (Q923J1 whole entry W1111A): as the sequence (Q923J1 whole entry A981V) above, with V981A, W1111A counted along it
Method: as §1, §2

[1] = [NS8593] 0.7 µM, replicate values, read-out: TRPM7 activity, 100%
[2] = [NS8593] 7.0 µM, replicate values, read-out: TRPM7 activity, 100%

Q: For `c1ccc2c(c1)CCC[C@H]2Nc1nc2ccccc2[nH]1` [NS8593], which remaining activity at 0.3 µM (TRPM7-A981V; [NS8593] 0.3 µM, replicate values, read-out: TRPM7 activity, 100%) is on record?
A: 98.9%

Q: And the remaining activity at 0.7 µM (TRPM7-A981V; [1])?
A: 97.4%

Q: What about the remaining activity at 7 µM (TRPM7-A981V; [2]) of the same compound?
A: 81.9%

Q: And the Hill coefficient (TRPM7-A981V; antagonist, mean ± SEM)?
A: –1.45 ± 0.50

Q: And the IC50 (TRPM7-A981V; antagonist, mean ± SEM, read-out: IC50)?
A: 21.9 ± 12.3 µM

Q: What about the remaining activity at 0.7 µM (TRPM7-M991A; M991A in the presence of 10 µM VER155008, [NS8593] 0.7 µM, replicate values, read-out: TRPM7 activity, 100%) of the same compound?
A: 77%

Q: And the remaining activity at 1 µM (TRPM7-M991A; M991A in the presence of 10 µM VER155008, [NS8593] 1.0 µM, replicate values, read-out: TRPM7 activity, 100%)?
A: 61.9%

Q: And the remaining activity at 3 µM (TRPM7-M991A; M991A in the presence of 10 µM VER155008, [NS8593] 3.0 µM, replicate values, read-out: TRPM7 activity, 100%)?
A: 17.1%

Q: And the remaining activity at 5 µM (TRPM7-M991A; M991A in the presence of 10 µM VER155008, [NS8593] 5.0 µM, replicate values, read-out: TRPM7 activity, 100%)?
A: 11.9%

Q: And the remaining activity at 1 µM (TRPM7-M991A; M991A without VER155008, [NS8593] 1.0 µM, replicate values, read-out: TRPM7 activity, 100%)?
A: 28.8%

Q: What about the Hill coefficient (TRPM7-M991A; M991A, antagonist, no added second inhibitor, mean ± SEM) of the same compound?
A: –1.24 ± 0.15

Q: And the IC50 (TRPM7-M991A; M991A, antagonist, no added second inhibitor, mean ± SEM, read-out: IC50)?
A: 0.59 ± 0.05 µM

Q: And the Hill coefficient (TRPM7-M991A; M991A, in the presence of 10 µM VER155008, mean ± SEM)?
A: –1.43 ± 0.11

Q: And the remaining activity at 0.5 µM (TRPM7-W1111A; [NS8593] 0.5 µM, replicate values, read-out: TRPM7 activity, 100%)?
A: 103%

Q: And the remaining activity at 0.7 µM (TRPM7-W1111A; [1])?
A: 103%

Q: What about the remaining activity at 1 µM (TRPM7-W1111A; [NS8593] 1.0 µM, replicate values, read-out: TRPM7 activity, 100%) of the same compound?
A: 98.1%

Q: What about the remaining activity at 3 µM (TRPM7-W1111A; [NS8593] 3.0 µM, replicate values, read-out: TRPM7 activity, 100%) of the same compound?
A: 62.5%

Q: What about the remaining activity at 7 µM (TRPM7-W1111A; [2]) of the same compound?
A: 50.3%

Q: What about the Hill coefficient (TRPM7-W1111A; antagonist, mean ± SEM) of the same compound?
A: –1.54 ± 0.24

Q: What about the IC50 (TRPM7-W1111A; antagonist, mean ± SEM) of the same compound?
A: 5.14 ± 0.45 µM
